Laboratory results published in US20260183297A1, “SELECTION OF PATIENTS FOR THE TREATMENT OF FADS1-MEDIATED DISEASES OR DISORDERS USING FADS-1 INHIBITORS” (AMGEN INC., priority 2022, published 2026).
Entries after “also recorded” stand apart in the source; their conditions may differ. Marks after values point to notes of the source that are not given here.

Experiments:
[1] = Fatty acid concentration and composition of plasma lipid subfractions (GC) of Compound A-treated DIO mice; assay type: in vivo; conditions: DIO mouse plasma, 30 mg/kg, mean
[2] = Indirect calorimetry studies (CLAMS); assay type: in vivo, mouse; conditions: DIO mice, 30 mg/kg
Procedure: Twenty-four Fads1 KO and 24 WT mice entered the Comprehensive Laboratory Animal Monitoring System (CLAMS; Columbus Instruments, Columbus, Ohio—Oxymax Model 2018, 0233-004M, Oxymax for Windows v5.53 software, Hardware configuration 190395) before starting the HFD feeding phase, and again at 6 and 12 weeks on HFD. […] Body weight was measured daily, and food consumption was measured biweekly. Animals reentered the CLAMS on days 17-21 and on days 38-42. The volume of oxygen consumption (VO2), carbon dioxide production (VCO2), RER, and energy expenditure (HEAT) were measured during that period.

[3] = Plasma lipid, glucose, insulin and metabolic profile measurements in DIO mice; assay type: in vivo, mouse; conditions: for Alanine Aminotransferase / Cholesterol / HDL-Cholesterol / Insulin / LDL-Cholesterol / Non-esterified fatty acids / Triglycerides: DIO mice plasma; for Alanine Aminotransferase / Cholesterol / HDL-Cholesterol / Insulin / LDL-Cholesterol / Non-esterified fatty acids / Triglycerides / C-reactive Protein / Glucose / Serum Amyloid A: mean ± SD
Procedure: Body weight was measured daily and used for dosing calculations. A 4-hour fasted retro-orbital blood sample was collected at baseline and day 46 and used for insulin, cholesterol, and triglyceride analysis. A 3-day average food consumption was measured on days 39-41. All animals received 0.1 ml of 2 mM ^13C5-DGLA by IP injection 23.5 hours after the last PO gavage with the different treatment to allow for 30 minutes of exposure prior to necropsy to determine the residual in vivo FADS1 activity.
Mice were bled consciously from the retro-orbital sinus, and blood was collected into EDTA plasma tubes. Plasma lipids were measured using the Olympus AU400e Chemistry Analyzer (Olympus America, Center Valley, PA). Plasma insulin was measured using the ALPCO mouse high range insulin ELISA (Alpco, Salem, NH). Blood glucose was measured using an AlphaTRAK blood glucometer (Zoetis, Parsippany, NJ).

[4] = Biomarker analysis of tissue and plasma samples (Luminex: adiponectin, leptin, PAI-1, MCP-1); assay type: in vivo, mouse; conditions: DIO mice, 30 mg/kg
Procedure: Frozen liver and adipose tissue samples were powdered with stainless steel Bessman Tissue Pulverizers (Spectrum Laboratory Products, Gardena, CA) per the manufacturer's instructions and the resulting tissue powders were stored in cryotubes at −80° C. until extraction. A portion of each powdered tissue sample was extracted using an in-house protein extraction buffer (50-mM Tris buffer, pH 7.4, 0.1 M NaCl and 0.1% Triton X-100) containing a protease inhibitor cocktail (Millipore Sigma, Burlington, MA). Samples were homogenized with a MagNA Lyser (Roche Diagnostics, Indianapolis, IN) for 30 seconds at 6500 rpm, placed at 4° C. for 30 minutes and then spun in a refrigerated microcentrifuge at 10,000 rpm for 10 minutes. The resulting supernatants were removed to clean 1.5 ml microfuge tubes and spun again at 14,000 rpm for 15 minutes. The final supernatants were aliquoted into labeled cluster tubes and protein concentrations were determined using a standard BCA Protein Assay (Thermo Fisher Scientific, Waltham, MA) prior to storage at −80° C.
Separate aliquots of tissue protein extracts and terminal plasma samples were used to quantify levels of various analytes. Multiple adipokines and hormones (MCP-1, leptin, insulin, and PAI-1) were assessed using a multiplex mouse-specific Luminex assay while adiponectin was evaluated using a single-plex mouse-specific Luminex assay (Millipore Sigma, Burlington, MA). All the commercial assays were performed per the manufacturer's instructions. Data were acquired on a FlexMap 3D (Luminex Corporation, Austin. TX). Tissue protein expression levels were normalized per mg of total protein.

[5] = DIO mice, 10 mg kg^−1, 46 or 54 days
[6] = DIO mice, 30 mg kg^−1, 46 or 54 days
[7] = DIO mice, 10 and 30 mg/kg daily oral

In the case of `COc1ccn2c(=O)c(-c3cnn(CC(F)(F)C(F)(F)F)c3)c(C(F)(F)F)nc2c1` [Compound A, 8-methoxy-3-(1-(2,2,3,3,3-pentafluoropropyl)-1H-pyrazol-4-yl)-2-(trifluoromethyl)-4H-pyrido[1,2-a]pyrimidin-4-one], the “C20:4n6 concentration, Cholesterol ester” value ([1]; Cholesterol ester) is reported as 72.4*** μg mL^−1, the “C16:1n7t concentration, Phospholipids” value ([1]; Phospholipids) is reported as 1.2 µg/mL and the “C16:1n7t concentration, Total” value ([1]; Total lipids) is reported as 3.0 µg/mL. For the same molecule, the “C20:2n6 concentration, Total” value ([1]; Total lipids) was 9.9 µg/mL, the “C24:0 concentration, Total” value ([1]; Total lipids) was 1.9 µg/mL and the body weight ([2]; 42 days, vs vehicle) was “significantly reduced body weight”. The carbon dioxide production ([2]; 42 days, vs vehicle) was “no differences”, the energy expenditure ([2]; 42 days, vs vehicle) was “no differences” and the oxygen consumption ([2]; 42 days, vs vehicle) was “no differences”. For the same molecule, the “light cycle RER” value ([2]; at 17-23 days and 38-42 days) was “decreased”, the “activity in the dark cycle” value ([2]; vs vehicle-treated mice) was “trended to be more active” and the “plasma liver enzyme alanine aminotransferase (ALT)” value ([3]; Compound A-treated DIO mice) was “decreased”. The “Alanine Aminotransferase” value ([3]; 10 mg kg^−1, 46 or 54 days) was 142.8 ± 26.6 U L^−1, the Cholesterol ([3]; 10 mg kg^−1, 46 or 54 days) was 173.0 ± 11.9 mg/dL and the HDL-Cholesterol ([3]; 10 mg kg^−1, 46 or 54 days) was 86.4 ± 8.0 mg/dL. It also gave an Insulin ([3]; 10 mg kg^−1, 46 or 54 days) of 3.7 ± 3.2 ng/mL, an LDL-Cholesterol ([3]; 10 mg kg^−1, 46 or 54 days) of 22.4 ± 2.3 mg/dL and a Non-esterified fatty acids ([3]; 10 mg kg^−1, 46 or 54 days) of 0.9 ± 0.1 mEq L^−1. The Triglycerides ([3]; 10 mg kg^−1, 46 or 54 days) was 77.8 ± 13.7 mg/dL, the “Alanine Aminotransferase” value ([3]; 30 mg kg^−1, 46 or 54 days) was 102.0 ± 32.4 U L^−1 and the Cholesterol ([3]; 30 mg kg^−1, 46 or 54 days) was 165.3 ± 15.6 mg/dL. It also gave an HDL-Cholesterol ([3]; 30 mg kg^−1, 46 or 54 days) of 85.7 ± 5.5 mg/dL, an Insulin ([3]; 30 mg kg^−1, 46 or 54 days) of 2.2 ± 1.3 ng/mL and an LDL-Cholesterol ([3]; 30 mg kg^−1, 46 or 54 days) of 19.7 ± 2.5 mg/dL. The Non-esterified fatty acids ([3]; 30 mg kg^−1, 46 or 54 days) was 0.7 ± 0.1 mEq L^−1, the Triglycerides ([3]; 30 mg kg^−1, 46 or 54 days) was 63.3 ± 9.7 mg/dL and the “C-reactive Protein” value [3, 5] was 43.6 ± 9.7 µg/mL. For the same molecule, the Glucose [3, 5] was 170.3 ± 22.3 mg/dL, the “Serum Amyloid A” value [3, 5] was 5.2 ± 1.3 µg/mL and the “plasma insulin decrease vs vehicle” value ([3]; DIO mice, 10 mg/kg daily oral) was 74.9%. The “C-reactive Protein” value [3, 6] was 37.1 ± 6.5 µg/mL, the Glucose [3, 6] was 168.6 ± 23.2 mg/dL and the “Serum Amyloid A” value [3, 6] was 4.8 ± 1.8 µg/mL. For the same molecule, the “lower plasma triglycerides vs vehicle” value ([3]; DIO mice, 30 mg/kg daily oral) was 41.6%, the “plasma insulin decrease vs vehicle” value ([3]; DIO mice, 30 mg/kg daily oral) was 84.7% and the plasma cholesterol [3, 7] was “lowered; also recorded: trended lower”. The plasma triglycerides [3, 7] was “dose-dependent decreases”, the adiponectin levels ([4]; EPI WAT) was “elevated” and the MCP-1 levels ([4]; EPI and ING WAT) was “trends towards lower”. For the same molecule, the PAI-1 levels ([4]; EPI and ING WAT) was “trends towards lower” and the leptin levels ([4]; plasma, EPI and ING WAT) was “decreased”.
